These results are taken from PubChem BioAssay AID248 (DTP/NCI, 2004).

“And” between values parts separate entries of the source, which are not always exact repeats. Equal entries are not always repeated. Toxic doses and inconclusive results are not listed.

This assay relates to L1210 leukemia ip in BDF1 mice, survival T/C. Nature of the assay: NCI In Vivo Anticancer Drug Screen. Data for tumor model L1210 Leukemia (intraperitoneal) in B6D2F1 (BDF1) mice. Conditions: endpoint: mean survival time, higher = longer survival. A digest of the protocol: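 Transplanted-tumor mice were given test agent; controls received vehicle only. Survival readings from the two groups were divided (treated over control).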

Setting [1] is: dose: 100.0 mg/kg/injection, schedule: Q01DX009 (ip), vehicle: saline.
[2] abbreviates: dose: 100.0 mg/kg/injection, schedule: Q04DX003 (ip), vehicle: Klucel (hydroxypropylcellulose) (HPC).
Where [3] appears, read: dose: 200.0 mg/kg/injection, schedule: Q01DX009 (ip), vehicle: saline.
Setting [4] is: dose: 200.0 mg/kg/injection, schedule: Q04DX003 (ip), vehicle: Klucel (hydroxypropylcellulose) (HPC).
Where [5] appears, read: dose: 400.0 mg/kg/injection, schedule: Q04DX003 (ip), vehicle: Klucel (hydroxypropylcellulose) (HPC).

With `Nc1nc(N)c2cc(CNc3ccc(C(=O)NC(CC(=O)O)C(=O)O)cc3)ccc2n1` (configuration not stated), the T/C was 97 % of control and 100 % of control (dose: 0.07 mg/kg/injection, schedule: Q01DX009 (ip), vehicle: saline); 110 % of control and 120 % of control (dose: 0.14 mg/kg/injection, schedule: Q01DX009 (ip), vehicle: saline); 110 % of control (dose: 0.25 mg/kg/injection, schedule: Q01DX009 (sc), vehicle: saline); 120 % of control (dose: 0.5 mg/kg/injection, schedule: Q01DX009 (sc), vehicle: saline); 164 % of control (dose: 0.56 mg/kg/injection, schedule: Q01DX009 (ip), vehicle: saline); 157 % of control and 189 % of control (dose: 0.67 mg/kg/injection, schedule: Q01DX009 (ip), vehicle: saline). Moreover, the T/C (dose: 1.0 mg/kg/injection, schedule: Q01DX009 (ip), vehicle: saline) was 178 % of control; the T/C (dose: 1.0 mg/kg/injection, schedule: Q01DX009 (sc), vehicle: saline) was 158 % of control; the T/C (dose: 1.13 mg/kg/injection, schedule: Q01DX009 (ip), vehicle: saline) was 153 % of control and 193 % of control and 195 % of control; the T/C (dose: 1.25 mg/kg/injection, schedule: Q01DX009 (ip), vehicle: saline) is 173 % of control and 177 % of control; the T/C (dose: 2.0 mg/kg/injection, schedule: Q01DX001 (ip), vehicle: saline) is 118 % of control; the T/C (dose: 2.0 mg/kg/injection, schedule: Q01DX001 (iv), vehicle: saline) was 117 % of control. Also, the T/C was 112 % of control (dose: 2.0 mg/kg/injection, schedule: Q01DX001 (sc), vehicle: saline); 154 % of control (dose: 2.0 mg/kg/injection, schedule: Q01DX009 (ip), vehicle: saline); 110 % of control (dose: 2.0 mg/kg/injection, schedule: Q01DX009 (oral), vehicle: saline); 188 % of control (dose: 2.0 mg/kg/injection, schedule: Q01DX009 (sc), vehicle: saline); 118 % of control (dose: 2.0 mg/kg/injection, schedule: Q08DX002 (ip), vehicle: saline); 123 % of control (dose: 2.0 mg/kg/injection, schedule: Q## X008 (ip), vehicle: saline). Also, the T/C is 154 % of control (dose: 2.0 mg/kg/injection, schedule: Q## X024 (ip), vehicle: saline); 174 % of control and 177 % of control (dose: 2.25 mg/kg/injection, schedule: Q01DX009 (ip), vehicle: saline); 119 % of control (dose: 4.0 mg/kg/injection, schedule: Q01DX001 (ip), vehicle: saline); 119 % of control (dose: 4.0 mg/kg/injection, schedule: Q01DX001 (iv), vehicle: saline); 119 % of control (dose: 4.0 mg/kg/injection, schedule: Q01DX001 (sc), vehicle: saline); 110 % of control (dose: 4.0 mg/kg/injection, schedule: Q01DX009 (oral), vehicle: saline). The T/C runs as follows: (dose: 4.0 mg/kg/injection, schedule: Q01DX009 (sc), vehicle: saline) 120 % of control; (dose: 4.0 mg/kg/injection, schedule: Q## X003 (ip), vehicle: saline) 152 % of control; (dose: 4.0 mg/kg/injection, schedule: Q## X024 (ip), vehicle: saline) 185 % of control; (dose: 4.5 mg/kg/injection, schedule: Q01DX009 (ip), vehicle: saline) 95 % of control and 117 % of control; (dose: 5.0 mg/kg/injection, schedule: Q01DX009 (ip), vehicle: saline) 96 % of control and 101 % of control and 91 % of control; (dose: 8.0 mg/kg/injection, schedule: Q01DX001 (ip), vehicle: saline) 123 % of control. Moreover, the T/C reads like this: (dose: 8.0 mg/kg/injection, schedule: Q01DX001 (iv), vehicle: saline) 118 % of control; (dose: 8.0 mg/kg/injection, schedule: Q01DX009 (oral), vehicle: saline) 109 % of control; (dose: 8.0 mg/kg/injection, schedule: Q03HX016 (ip), vehicle: saline) 150 % of control; (dose: 8.0 mg/kg/injection, schedule: Q## X003 (ip), vehicle: saline) 158 % of control; (dose: 8.0 mg/kg/injection, schedule: Q## X024 (ip), vehicle: saline) 194 % of control; (dose: 9.0 mg/kg/injection, schedule: Q01DX009 (ip), vehicle: saline) 87 % of control and 89 % of control. For the same compound, the T/C (dose: 10.0 mg/kg/injection, schedule: Q01DX009 (ip), vehicle: saline) is 89 % of control and 91 % of control; the T/C (dose: 16.0 mg/kg/injection, schedule: Q01DX001 (iv), vehicle: saline) is 122 % of control; the T/C (dose: 16.0 mg/kg/injection, schedule: Q01DX001 (oral), vehicle: saline) is 102 % of control; the T/C (dose: 16.0 mg/kg/injection, schedule: Q01DX009 (oral), vehicle: saline) is 112 % of control; the T/C (dose: 16.0 mg/kg/injection, schedule: Q03HX016 (ip), vehicle: saline) is 165 % of control; the T/C (dose: 16.0 mg/kg/injection, schedule: Q08DX002 (ip), vehicle: saline) was 169 % of control. For the same compound, the T/C (dose: 16.0 mg/kg/injection, schedule: Q## X024 (ip), vehicle: saline) is 206 % of control; the T/C (dose: 20.0 mg/kg/injection, schedule: Q01DX001 (ip), vehicle: saline) was 108 % of control; the T/C (dose: 32.0 mg/kg/injection, schedule: Q01DX001 (ip), vehicle: saline) was 152 % of control; the T/C (dose: 32.0 mg/kg/injection, schedule: Q01DX001 (oral), vehicle: saline) was 103 % of control; the T/C (dose: 32.0 mg/kg/injection, schedule: Q03HX016 (ip), vehicle: saline) was 197 % of control; the T/C (dose: 32.0 mg/kg/injection, schedule: Q08DX002 (ip), vehicle: saline) is 159 % of control. The T/C reads like this: (dose: 32.0 mg/kg/injection, schedule: Q## X008 (ip), vehicle: saline) 150 % of control; (dose: 64.0 mg/kg/injection, schedule: Q01DX001 (oral), vehicle: saline) 101 % of control; (dose: 128.0 mg/kg/injection, schedule: Q01DX001 (oral), vehicle: saline) 101 % of control.
On to `C[N+](C)(C)C1CC2CC1C2` (configuration not stated), for which the T/C (dose: 75.0 mg/kg/injection, schedule: Q01DX001 (ip), vehicle: saline) was 97 % of control.
In the case of `CCC(=O)OCC1OC(n2cnc3c(=S)nc(N)[nH]c32)C(OC(=O)CC)C1OC(=O)CC` (configuration not stated), the T/C reads like this: (dose: 0.8 mg/kg/injection, schedule: Q01DX Z (ip), vehicle: carboxymethylcellulose (CMC)) 106 % of control; (dose: 1.3 mg/kg/injection, schedule: Q01DX Z (ip), vehicle: carboxymethylcellulose (CMC)) 110 % of control; (dose: 2.0 mg/kg/injection, schedule: Q01DX Z (ip), vehicle: carboxymethylcellulose (CMC)) 120 % of control; (dose: 8.0 mg/kg/injection, schedule: Q01DX Z (ip), vehicle: carboxymethylcellulose (CMC)) 169 % of control; (dose: 12.0 mg/kg/injection, schedule: Q01DX Z (ip), vehicle: carboxymethylcellulose (CMC)) 151 % of control and 154 % of control; (dose: 18.0 mg/kg/injection, schedule: Q01DX Z (ip), vehicle: carboxymethylcellulose (CMC)) 101 % of control. Also, the T/C runs as follows: (dose: 27.0 mg/kg/injection, schedule: Q01DX Z (ip), vehicle: carboxymethylcellulose (CMC)) 156 % of control; (dose: 40.0 mg/kg/injection, schedule: Q01DX Z (ip), vehicle: carboxymethylcellulose (CMC)) 151 % of control.
With `CCCCCCCCCCCCCCCCN(C(C)C)S(=O)(=O)c1ccc(Cl)c(N)c1`, the T/C is 89 % of control under setting [1]; 98 % of control under setting [2]; 89 % of control under setting [3]; 96 % of control under setting [4]; 102 % of control (dose: 400.0 mg/kg/injection, schedule: Q01DX009 (ip), vehicle: saline); 89 % of control under setting [5].
On to `NC(=O)C(O)C(O)C(O)C(O)C(N)=O` (configuration not stated), for which the T/C is 100 % of control (dose: 50.0 mg/kg/injection, schedule: Q01DX009 (ip), vehicle: saline); 98 % of control under setting [1]; 92 % of control (dose: 100.0 mg/kg/injection, schedule: Q04DX003 (ip), vehicle: saline); 93 % of control under setting [3]; 93 % of control (dose: 200.0 mg/kg/injection, schedule: Q04DX003 (ip), vehicle: saline).
With `O=P(NC12CC3CC(CC(C3)C1)C2)(c1ccccc1)N1CC1` (configuration not stated), the T/C reads like this: under setting [2], 86 % of control; under setting [4], 88 % of control; under setting [5], 89 % of control.
In the case of `CCCCCCCCCCCOc1ccc(C=Nc2ccc(C)cc2)cc1`, the T/C is 101 % of control under setting [2], 98 % of control under setting [4] and 98 % of control under setting [5].
